Source: ChEMBL document CHEMBL1201862, “PubChem BioAssay data set” (2004)
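Briefly, cells in 96-well plates were exposed to five compound concentrations for 48 h, and endpoints were estimated by linear interpolation. GI50: concentration for 50% inhibition of growth.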 Activity calls are given as the source filed them. Rule as the data show it: active = GI50 up to about 1.1 µM and inactive = higher.

Columns and labels:
Assay in all cases: NCI tumour cell line growth inhibition, 48 h
SR = system: SR
LXFL 529 = system: LXFL 529
BT-549 = system: BT-549
SK-MEL-2 = system: SK-MEL-2
OVCAR-8 = system: OVCAR-8
SK-OV-3 = system: SK-OV-3
HOP-92 = system: HOP-92
UACC-62 = system: UACC-62
OVCAR-3 = system: OVCAR-3
DLD-1 = system: DLD-1
DMS-273 = system: DMS-273
HCT-116 = system: HCT-116
SF-539 = system: SF-539
NCI-H226 = system: NCI-H226
MOLT-4 = system: MOLT-4
CAKI-1 = system: CAKI-1
HT-29 = system: HT-29
DMS-114 = system: DMS-114
XF498 = system: XF498
ACHN = system: ACHN
Hs-578T = system: Hs-578T
CCRF-CEM = system: CCRF-CEM
A498 = system: A498
RXF 393 = system: RXF 393
NCI-H23 = system: NCI-H23
IGROV-1 = system: IGROV-1
EKVX = system: EKVX
MDA-N = system: MDA-N
SF-268 = system: SF-268
HL-60 = system: HL-60
KM-20L2 = system: KM-20L2
SK-MEL-28 = system: SK-MEL-28
NCI-H522 = system: NCI-H522
HOP-18 = system: HOP-18
KM12 = system: KM12
TK-10 = system: TK-10
HOP-62 = system: HOP-62
SK-MEL-5 = system: SK-MEL-5
DU-145 = system: DU-145
HCT-15 = system: HCT-15
M14 = system: M14
T47D = system: T47D
SN12C = system: SN12C
NCI-H460 = system: NCI-H460
RPMI-8226 = system: RPMI-8226
COLO 205 = system: COLO 205
A549 = system: A549
SNB-19 = system: SNB-19
OVCAR-4 = system: OVCAR-4
UACC-257 = system: UACC-257
SW-620 = system: SW-620
M19-MEL = system: M19-MEL
SNB-78 = system: SNB-78
SNB-75 = system: SNB-75
Malme-3M = system: Malme-3M
PC-3 = system: PC-3
U-251 = system: U-251
RXF 631 = system: RXF 631
UO-31 = system: UO-31
MCF7 = system: MCF7
HCC 2998 = system: HCC 2998
OVCAR-5 = system: OVCAR-5
LOX IMVI = system: LOX IMVI
786-0 = system: 786-0
SF-295 = system: SF-295
K562 = system: K562
MDA-MB-231 = system: MDA-MB-231
MDA-MB-435 = system: MDA-MB-435

SMILES: CC(=O)c1cccc(NC(=O)C(=O)NNc2nnc(S)n2N)c1
- GI50 (SR): 3.61 µM (inactive)
- GI50 (LXFL 529): 10.7 µM (inactive)
- GI50 (BT-549): 2.34 µM (inactive)
- GI50 (SK-MEL-2): 3.06 µM (inactive)
- GI50 (OVCAR-8): 5.46 µM (inactive)
- GI50 (SK-OV-3): 20.5 µM (inactive)
- GI50 (HOP-92): 13.9 µM (inactive)
- GI50 (UACC-62): 1.89 µM (inactive)
- GI50 (OVCAR-3): 3.99 µM (inactive)
- GI50 (DLD-1): 7.38 µM (inactive)
- GI50 (DMS-273): 5.55 µM (inactive)
- GI50 (HCT-116): 4 µM (inactive)
- GI50 (SF-539): 6.18 µM (inactive)
- GI50 (NCI-H226): 12.2 µM (inactive)
- GI50 (MOLT-4): 3.6 µM (inactive)
- GI50 (CAKI-1): 17.3 µM (inactive)
- GI50 (HT-29): 9.4 µM (inactive)
- GI50 (DMS-114): 1.85 µM (inactive)
- GI50 (XF498): 12.7 µM (inactive)
- GI50 (ACHN): 7.33 µM (inactive)
- GI50 (Hs-578T): 2 µM (inactive)
- GI50 (CCRF-CEM): 3.48 µM (inactive)
- GI50 (A498): 20.4 µM (inactive)
- GI50 (RXF 393): 10.4 µM (inactive)
- GI50 (NCI-H23): 3.18 µM (inactive)
- GI50 (IGROV-1): 8.61 µM (inactive)
- GI50 (EKVX): 14.2 µM (inactive)
- GI50 (MDA-N): 2.27 µM (inactive)
- GI50 (SF-268): 9.62 µM (inactive)
- GI50 (HL-60): 3.18 µM (inactive)
- GI50 (KM-20L2): 14.1 µM (inactive)
- GI50 (SK-MEL-28): 6.89 µM (inactive)
- GI50 (NCI-H522): 6.37 µM (inactive)
- GI50 (HOP-18): 11.8 µM (inactive)
- GI50 (KM12): 11.1 µM (inactive)
- GI50 (TK-10): 25.9 µM (inactive)
- GI50 (HOP-62): 12.1 µM (inactive)
- GI50 (SK-MEL-5): 1.21 µM (inactive)
- GI50 (DU-145): 6.58 µM (inactive)
- GI50 (HCT-15): 4.9 µM
- GI50 (M14): 1.89 µM (inactive)
- GI50 (T47D): 3.5 µM (inactive)
- GI50 (SN12C): 7.4 µM (inactive)
- GI50 (NCI-H460): 4.17 µM (inactive)
- GI50 (RPMI-8226): 13.6 µM (inactive)
- GI50 (COLO 205): 14.2 µM (inactive)
- GI50 (A549): 3.75 µM (inactive)
- GI50 (SNB-19): 6.25 µM (inactive)
- GI50 (OVCAR-4): 10.1 µM (inactive)
- GI50 (UACC-257): 2.75 µM (inactive)
- GI50 (SW-620): 7.73 µM (inactive)
- GI50 (M19-MEL): 0.805 µM (active)
- GI50 (SNB-78): 11.3 µM (inactive)
- GI50 (SNB-75): 7.29 µM (inactive)
- GI50 (Malme-3M): 1.93 µM (inactive)
- GI50 (PC-3): 3.27 µM (inactive)
- GI50 (U-251): 3.57 µM (inactive)
- GI50 (RXF 631): 3.01 µM (inactive)
- GI50 (UO-31): 9.16 µM (inactive)
- GI50 (MCF7): 4.27 µM (inactive)
- GI50 (HCC 2998): 14.1 µM (inactive)
- GI50 (OVCAR-5): 17.3 µM (inactive)
- GI50 (LOX IMVI): 1.64 µM (inactive)
- GI50 (786-0): 11.3 µM (inactive)
- GI50 (SF-295): 4.14 µM (inactive)
- GI50 (K562): 4.85 µM (inactive)

SMILES: O=C(O)/C(Cl)=C(/Cl)C(=O)Nc1cccc(Cl)c1
- GI50 (SR): 8.24 µM (inactive)
- GI50 (LXFL 529): 15.4 µM (inactive)
- GI50 (BT-549): 19.4 µM (inactive)
- GI50 (SK-MEL-2): 20.8 µM (inactive)
- GI50 (OVCAR-8): 18.7 µM (inactive)
- GI50 (SK-OV-3): 15.7 µM (inactive)
- GI50 (HOP-92): 14.6 µM (inactive)
- GI50 (UACC-62): 16.8 µM (inactive)
- GI50 (OVCAR-3): 16.7 µM (inactive)
- GI50 (DLD-1): 15.6 µM (inactive)
- GI50 (DMS-273): 12.9 µM (inactive)
- GI50 (HCT-116): 16.2 µM (inactive)
- GI50 (MDA-MB-231): 14.6 µM (inactive)
- GI50 (SF-539): 17.6 µM (inactive)
- GI50 (NCI-H226): 24.8 µM (inactive)
- GI50 (MOLT-4): 4.28 µM (inactive)
- GI50 (CAKI-1): 7.33 µM (inactive)
- GI50 (HT-29): 20 µM (inactive)
- GI50 (DMS-114): 16.6 µM (inactive)
- GI50 (XF498): 18.1 µM (inactive)
- GI50 (ACHN): 18.5 µM (inactive)
- GI50 (Hs-578T): 24.8 µM (inactive)
- GI50 (CCRF-CEM): 5.87 µM (inactive)
- GI50 (A498): > 64.1 µM (inactive)
- GI50 (RXF 393): 16.4 µM (inactive)
- GI50 (NCI-H23): 15.9 µM (inactive)
- GI50 (IGROV-1): 18.8 µM (inactive)
- GI50 (EKVX): 17.9 µM (inactive)
- GI50 (MDA-N): 17.3 µM (inactive)
- GI50 (SF-268): 22.4 µM (inactive)
- GI50 (HL-60): 8.91 µM (inactive)
- GI50 (KM-20L2): 19.7 µM (inactive)
- GI50 (SK-MEL-28): 17.9 µM (inactive)
- GI50 (MDA-MB-435): 19.2 µM (inactive)
- GI50 (NCI-H522): 4.35 µM (inactive)
- GI50 (HOP-18): 20.4 µM (inactive)
- GI50 (KM12): 20.8 µM (inactive)
- GI50 (TK-10): 18.1 µM (inactive)
- GI50 (HOP-62): > 59.4 µM (inactive)
- GI50 (SK-MEL-5): 19 µM (inactive)
- GI50 (DU-145): > 100 µM (inactive)
- GI50 (HCT-15): 16.6 µM
- GI50 (M14): 18.6 µM (inactive)
- GI50 (T47D): 22 µM (inactive)
- GI50 (SN12C): 20 µM (inactive)
- GI50 (NCI-H460): > 87.9 µM (inactive)
- GI50 (RPMI-8226): 12.1 µM (inactive)
- GI50 (COLO 205): 10.2 µM (inactive)
- GI50 (A549): 48.1 µM (inactive)
- GI50 (SNB-19): 31.7 µM (inactive)
- GI50 (OVCAR-4): 18.2 µM (inactive)
- GI50 (UACC-257): 18 µM (inactive)
- GI50 (SW-620): 12.6 µM (inactive)
- GI50 (M19-MEL): 15.6 µM (inactive)
- GI50 (SNB-78): 25.2 µM (inactive)
- GI50 (SNB-75): 17.9 µM (inactive)
- GI50 (Malme-3M): 16.9 µM (inactive)
- GI50 (PC-3): 18.5 µM (inactive)
- GI50 (U-251): 28 µM (inactive)
- GI50 (RXF 631): 22 µM (inactive)
- GI50 (UO-31): 18.5 µM (inactive)
- GI50 (MCF7): 24.8 µM (inactive)
- GI50 (HCC 2998): 17.5 µM (inactive)
- GI50 (OVCAR-5): 19.7 µM (inactive)
- GI50 (LOX IMVI): 13.8 µM (inactive)
- GI50 (786-0): 16.9 µM (inactive)
- GI50 (SF-295): 30.5 µM (inactive)
- GI50 (K562): 6.43 µM (inactive)

SMILES: C=CC/C=C/C/C=C/CCCCCCCc1cccc(O)c1C(=O)O
- GI50 (SR): > 100 µM (inactive)
- GI50 (LXFL 529): 36.1 µM (inactive)
- GI50 (SK-MEL-2): 49 µM (inactive)
- GI50 (OVCAR-8): > 100 µM (inactive)
- GI50 (SK-OV-3): 25.2 µM (inactive)
- GI50 (HOP-92): 23.7 µM (inactive)
- GI50 (UACC-62): 31.1 µM (inactive)
- GI50 (OVCAR-3): 35.4 µM (inactive)
- GI50 (DLD-1): 35 µM (inactive)
- GI50 (DMS-273): 45.4 µM (inactive)
- GI50 (HCT-116): > 100 µM (inactive)
- GI50 (SF-539): 69.5 µM (inactive)
- GI50 (MOLT-4): 42.8 µM (inactive)
- GI50 (CAKI-1): 32.1 µM (inactive)
- GI50 (HT-29): 48.8 µM (inactive)
- GI50 (DMS-114): > 100 µM (inactive)
- GI50 (XF498): > 100 µM (inactive)
- GI50 (ACHN): 44.2 µM (inactive)
- GI50 (CCRF-CEM): 30.3 µM (inactive)
- GI50 (NCI-H23): 29.6 µM (inactive)
- GI50 (IGROV-1): 33.6 µM (inactive)
- GI50 (EKVX): 49 µM (inactive)
- GI50 (SF-268): 24.3 µM (inactive)
- GI50 (HL-60): > 100 µM (inactive)
- GI50 (KM-20L2): 86.1 µM (inactive)
- GI50 (SK-MEL-28): 32.7 µM (inactive)
- GI50 (NCI-H522): 39.5 µM (inactive)
- GI50 (HOP-18): 17.3 µM (inactive)
- GI50 (KM12): 64 µM (inactive)
- GI50 (TK-10): 54.7 µM (inactive)
- GI50 (HOP-62): 14.4 µM (inactive)
- GI50 (HCT-15): 48 µM
- GI50 (M14): 82.8 µM (inactive)
- GI50 (NCI-H460): 36.1 µM (inactive)
- GI50 (RPMI-8226): 40.2 µM (inactive)
- GI50 (COLO 205): > 100 µM (inactive)
- GI50 (A549): 33 µM (inactive)
- GI50 (SNB-19): 34.9 µM (inactive)
- GI50 (OVCAR-4): 42.2 µM (inactive)
- GI50 (UACC-257): 73.3 µM (inactive)
- GI50 (SW-620): 45.9 µM (inactive)
- GI50 (M19-MEL): 43.9 µM (inactive)
- GI50 (SNB-78): > 100 µM (inactive)
- GI50 (SNB-75): 43.4 µM (inactive)
- GI50 (Malme-3M): 47.6 µM (inactive)
- GI50 (U-251): 19.7 µM (inactive)
- GI50 (RXF 631): > 100 µM (inactive)
- GI50 (UO-31): 25.2 µM (inactive)
- GI50 (HCC 2998): 58.7 µM (inactive)
- GI50 (OVCAR-5): > 100 µM (inactive)
- GI50 (LOX IMVI): 44.7 µM (inactive)
- GI50 (786-0): > 100 µM (inactive)
- GI50 (SF-295): > 100 µM (inactive)
- GI50 (K562): 33.3 µM (inactive)
